Results published in patent publication US8236761B2, “C-Met receptor regulation by angiotensin IV (AT4) receptor ligands” (Washington State University Research Foundation, priority 2006, dated 2012).
Non-standard residues stand in square brackets, D forms with d. No end group written: not given here. Nle = CCCC[C@H](N)C(=O)O

Assays:
c-Met [1] = target: T1, c-Met (Homo sapiens, UniProt P08581); test: HGF-induced Met/Gab1 association in HUVEC (IP/IB); assay type: cell-based; conditions: 5 minutes treatment
Protocol: FIG. 16 depicts inhibition of angiogenesis by Norleual (Compound 2, SEQ ID NO:43) in the mouse aortic ring assay. Rings were incubated in EGM-2 media (Cambrex) with (n=8) or without (n=6) 100 pM Norleual for four days. Digital photos of the rings were taken on day four. FIG. 16A: Quantification of aortic ring angiogenesis. Areas covered by angiogenic sprouts were quantified from day four ring photos, control (−) and Norelual treated (+) (p-value=0.012* and error bars indicate ±SEM). FIG. 16B: HUVECs were treated for 5 minutes with HGF and/or Norleual at indicated concentrations. Lysates were IP with anti-c-Met and IB with anti-c-Met or Gab1.
Immunoprecipitation and Western blotting. Cells were serum starved for two hours in DMEM before treatment. Cells were harvested using RIPA lysis buffer (Upstate Biotechnol. Inc., Lake Placid, N.Y.) with phosphatase inhibitor cocktails 1 and 2 (Sigma, St Louis, Mo., USA). Protein concentration was determined using the BCA assay (Pierce, Rockford, Ill., USA). Lysates were incubated with antibody overnight at 4° C. Immunoprecipitation controls received mouse non-specific Ig (Upstate). […] The film images were digitized and analyzed using TotalLab® software (AmershamPharmacia/GE HealthCare, Piscataway, N.J.).
See Example 1 for Materials and Methods. Angiogenesis was evaluated with the ex vivo mouse aortic ring assay in the presence and absence of Norleual. […]
Target sequence in this assay (P08581 308-1390 limits assumed): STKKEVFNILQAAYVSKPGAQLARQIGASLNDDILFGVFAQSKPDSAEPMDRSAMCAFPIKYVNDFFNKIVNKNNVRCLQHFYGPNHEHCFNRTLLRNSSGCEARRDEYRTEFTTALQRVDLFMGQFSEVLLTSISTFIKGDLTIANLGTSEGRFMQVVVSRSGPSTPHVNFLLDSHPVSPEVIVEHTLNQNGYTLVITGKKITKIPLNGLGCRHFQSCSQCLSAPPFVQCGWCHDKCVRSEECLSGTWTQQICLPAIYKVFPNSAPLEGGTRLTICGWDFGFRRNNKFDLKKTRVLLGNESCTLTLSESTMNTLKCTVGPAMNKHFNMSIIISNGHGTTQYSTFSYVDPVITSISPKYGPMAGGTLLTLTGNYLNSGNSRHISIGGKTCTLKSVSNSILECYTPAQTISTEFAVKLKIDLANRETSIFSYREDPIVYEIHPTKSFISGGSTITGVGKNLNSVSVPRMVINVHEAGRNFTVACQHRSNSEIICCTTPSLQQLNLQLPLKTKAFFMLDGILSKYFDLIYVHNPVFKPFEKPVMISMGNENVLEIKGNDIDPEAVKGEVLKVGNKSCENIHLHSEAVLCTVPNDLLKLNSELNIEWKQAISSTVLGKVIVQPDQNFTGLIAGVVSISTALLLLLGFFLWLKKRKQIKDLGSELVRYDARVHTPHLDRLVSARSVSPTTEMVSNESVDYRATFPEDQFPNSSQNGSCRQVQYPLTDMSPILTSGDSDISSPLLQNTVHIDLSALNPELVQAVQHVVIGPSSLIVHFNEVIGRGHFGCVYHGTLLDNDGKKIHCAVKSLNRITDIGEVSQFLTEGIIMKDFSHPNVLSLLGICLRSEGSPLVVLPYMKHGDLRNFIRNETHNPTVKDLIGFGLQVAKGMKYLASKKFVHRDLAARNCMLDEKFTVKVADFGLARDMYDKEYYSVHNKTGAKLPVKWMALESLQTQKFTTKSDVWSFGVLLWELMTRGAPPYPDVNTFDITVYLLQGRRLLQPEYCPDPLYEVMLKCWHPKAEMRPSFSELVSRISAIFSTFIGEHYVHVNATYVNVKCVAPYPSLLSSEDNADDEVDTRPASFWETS
Target sequence in this assay (P08581 25-307 limits assumed): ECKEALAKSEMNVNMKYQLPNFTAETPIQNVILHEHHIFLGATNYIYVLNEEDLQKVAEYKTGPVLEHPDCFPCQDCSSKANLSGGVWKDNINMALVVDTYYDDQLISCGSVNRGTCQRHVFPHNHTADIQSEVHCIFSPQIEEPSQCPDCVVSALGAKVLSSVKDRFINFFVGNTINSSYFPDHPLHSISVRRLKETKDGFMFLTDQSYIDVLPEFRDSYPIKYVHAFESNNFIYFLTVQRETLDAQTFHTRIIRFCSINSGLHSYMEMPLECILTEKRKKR

HUVECs = test: Extracellular matrix related gene microarray in HUVECs; assay type: cell-based, human; conditions: 8 days, 1 pM
Protocol: Angiotensin-like factors as candidate c-Met receptor ligands were tested for the ability to modulate expression of extracellular matrix-related proteins in human umbilical vein endothelial cells (HUVECs) by gene microarray. Briefly, HUVECs were treated for 8 days in the presence or absence of test compounds at a concentration of 1 pM; Norleual (Compound 2, SEQ ID NO:43) was used as an exemplary angiotensin-like factor. RNA was harvested and transcriptional activities of 96 extracellular matrix related genes were assessed using gene microarrays.

[2] = system: B16-F10 murine melanoma cells; test: B16-F10 scratch wound closure assay; assay type: cell-based; conditions: six hours after scratch
Protocol: Scratch Assay. Confluent B16-F10 cells in 48 well plates were scratched with a 200 μl pipette tip. Wells were treated with vehicle, HGF, and/or Norleual. Photos were taken at various time points. Photos were graded by two investigators.
See Example 1 for Materials and Methods. Norleual was applied to HGF treated B16-F10 murine melanoma cells in a scratch wound assay. HGF accelerated the wound closure, however Norleual was able to attenuate HGF stimulated closure six hours after scratch (FIG. 11A).

c-Met [3] = target: T1, c-Met; test: Tyrosine kinase receptor protein array in HUVECs; assay type: cell-based; design: endogenous in cells; host or cells: HUVEC; conditions: HUVECs treated for 5 minutes
Protocol: Screening of a ligand for its ability to inhibit c-Met receptor phosphorylation was tested by tyrosine kinase receptor protein array. Briefly, human umbilical vein endothelial cells (HUVECs) grown to confluence were treated for 5 minutes with COMPOUND 2 (SEQ ID NO:43). Cells were then lysed and total protein collected.
Target sequence in this assay (P08581 25-1390): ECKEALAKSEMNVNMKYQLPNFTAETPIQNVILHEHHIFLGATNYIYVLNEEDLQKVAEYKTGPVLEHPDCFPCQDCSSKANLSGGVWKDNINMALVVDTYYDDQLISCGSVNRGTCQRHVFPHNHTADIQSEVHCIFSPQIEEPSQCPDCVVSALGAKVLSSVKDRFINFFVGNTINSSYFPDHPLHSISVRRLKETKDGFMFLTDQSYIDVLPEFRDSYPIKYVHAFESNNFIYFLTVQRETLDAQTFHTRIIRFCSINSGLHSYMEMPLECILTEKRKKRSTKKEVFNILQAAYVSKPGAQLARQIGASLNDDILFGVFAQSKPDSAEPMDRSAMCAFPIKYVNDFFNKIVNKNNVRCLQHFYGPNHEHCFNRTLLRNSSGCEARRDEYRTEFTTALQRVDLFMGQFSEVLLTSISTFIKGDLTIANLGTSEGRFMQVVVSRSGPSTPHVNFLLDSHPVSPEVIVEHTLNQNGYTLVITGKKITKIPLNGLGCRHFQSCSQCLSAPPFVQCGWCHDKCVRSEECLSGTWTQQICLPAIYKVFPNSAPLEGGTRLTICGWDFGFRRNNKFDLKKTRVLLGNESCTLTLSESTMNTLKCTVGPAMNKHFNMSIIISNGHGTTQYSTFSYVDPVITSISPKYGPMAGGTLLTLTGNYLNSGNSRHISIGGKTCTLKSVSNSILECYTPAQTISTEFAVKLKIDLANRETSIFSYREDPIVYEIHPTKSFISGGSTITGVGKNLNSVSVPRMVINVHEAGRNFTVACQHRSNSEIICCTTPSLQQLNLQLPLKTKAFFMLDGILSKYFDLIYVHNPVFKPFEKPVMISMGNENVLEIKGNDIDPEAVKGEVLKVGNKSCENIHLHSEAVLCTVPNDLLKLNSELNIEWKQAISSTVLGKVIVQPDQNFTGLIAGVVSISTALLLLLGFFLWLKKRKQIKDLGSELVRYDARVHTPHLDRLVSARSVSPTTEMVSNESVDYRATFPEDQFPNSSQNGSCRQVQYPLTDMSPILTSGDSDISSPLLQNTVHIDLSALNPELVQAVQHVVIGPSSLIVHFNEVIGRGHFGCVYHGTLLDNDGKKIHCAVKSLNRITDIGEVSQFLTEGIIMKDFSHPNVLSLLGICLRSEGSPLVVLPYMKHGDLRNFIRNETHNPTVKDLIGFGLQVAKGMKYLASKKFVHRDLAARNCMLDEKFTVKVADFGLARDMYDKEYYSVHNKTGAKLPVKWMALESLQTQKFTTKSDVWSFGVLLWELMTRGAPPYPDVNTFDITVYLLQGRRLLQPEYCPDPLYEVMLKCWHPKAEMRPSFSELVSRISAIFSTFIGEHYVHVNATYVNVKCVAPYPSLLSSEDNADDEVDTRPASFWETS

MDCK cells = test: HGF stimulated MDCK cell collagen I invasion (transwell chamber); assay type: cell-based, canine; conditions: HGF 20 ng/ml, twelve hours
Protocol: FIG. 9A: Modulation of HGF stimulated MDCK cell collagen I invasion in the Costar transwell chamber invasion assay. 50 μl of collagen I was added to the top chamber of the transwell chamber (BD Biosciences) and gelled by adjusting it to a physiological pH with a 1:1:1 mixture of 10× Modified Eagle's Medium, 1 M sodium bicarbonate, and 0.1 M sodium hydroxide for 30 minutes at 37° C. 50,000 MDCK cells in 1% FBS DMEM were seeded into the inside of the top chamber over the gelled collagen I solution and allowed to attach for two hours at 37° C. After the cells had attached to the collagen 1, the indicated concentrations of Norleual were added to the top chamber. […] The cells that had invaded the collagen and migrated to the underside of the membrane were counted in five random fields at 40× on a light microscope. The effect of treatment was determined using the one-way ANOVA with tukey's post-hoc analysis (Prism statistical analysis software). * indicates p<0.01 vs. HGF alone treatment. […] The cells that had invaded the collagen and migrated to the underside of the membrane were counted in five random fields at 40× on a light microscope. The effect of treatment was determined using the one-way ANOVA with tukey's post-hoc analysis (Prism statistical analysis software). * indicates p<0.05 vs. HGF treatment. […]

For “Nle-Tyr-Leu-ψ-His-Pro-Phe ([Nle]YLHPF; also: reduced peptide bond psi(CH2NH2) between Leu and His) [Norleual]”, the “HGF-induced Met/Gab1 association in HUVEC” value (c-Met [1]) was “inhibited”, the “Change in gene expression versus control: CD44, catenin, catenin β, catenin δ1, MMP-1, PAI-1, thrombospondin 1, integrin α-2” value (HUVECs) was “at least two fold” and the “HGF stimulated scratch wound closure” value [2] was “attenuate”. The “c-Met phosphorylation in receptor protein array” value (c-Met [3]) was “inhibited”, the “c-Met mediated collagen I invasion by MDCK cells” value (MDCK cells) was “inhibition” and the “c-Met mediated collagen I invasion by MDCK cells” value (MDCK cells; listed as Compound 2) was “inhibited”.
